For 12 compounds, IC50 results are on record in patent publication US8546404B2, “Compounds that are ERK inhibitors” (Merck Sharp & Dohme, priority 2005, dated 2013).

pIC50: −log10 of the molar value. Several values for one entry are separate records, joined by “and”; a condition that tells them apart may be missing. Equal entries are not always repeated.

Chain of fully phosphorylated, active Mouse ERK2 protein (P63085 whole entry): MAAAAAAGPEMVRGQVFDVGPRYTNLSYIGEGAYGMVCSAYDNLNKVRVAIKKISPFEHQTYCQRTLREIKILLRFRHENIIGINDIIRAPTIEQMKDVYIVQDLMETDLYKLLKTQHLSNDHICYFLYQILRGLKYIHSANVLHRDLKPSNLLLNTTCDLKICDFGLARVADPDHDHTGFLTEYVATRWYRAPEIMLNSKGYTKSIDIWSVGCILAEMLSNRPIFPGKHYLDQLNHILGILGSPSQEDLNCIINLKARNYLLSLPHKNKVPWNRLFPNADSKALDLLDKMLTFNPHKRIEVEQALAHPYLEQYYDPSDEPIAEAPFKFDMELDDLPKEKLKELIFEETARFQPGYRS

One experiment addresses fully phosphorylated, active Mouse ERK2 protein (Mus musculus (Mouse), UniProt P63085). Nature of the experiment: Active ERK2 Assay (IMAP format). It counts as biochemical. The conditions noted are these: AERK2 IC50. The procedure:
Activated ERK2 activity was also determined in the IMAP assay format using the procedure outlined above. […] Reactions proceeded for 30 minutes before termination by addition of 60 μl IMAP detection beads in binding buffer. Plates were read as above after 30 minute binding equilibration.
As to `O=C(Nc1ccc2[nH]nc(-c3ccncc3)c2c1)[C@@H]1CCN(CC(=O)N2CCN(c3ccc(-c4ncccn4)cc3)CC2)C1` [Example 6], the pIC50 is 9.10.

Staying with this experiment, now noted: read-out: AERK2 IC50.
In the case of `O=C(Nc1ccc2[nH]nc(-c3ccc(F)cc3)c2c1)[C@@H]1CCN(CC(=O)N2CCN(c3ccc(-c4ncccn4)cc3)CC2)C1` (stereo in doubt) [Example 1, 1-{2-Oxo-2-[4-(4-pyrimidin-2-yl-phenyl)-piperazin-1-yl]-ethyl}-pyrrolidine-3-carboxylic acid [3-(4-fluoro-phenyl)-1H-indazol-5-yl]-amide], the pIC50 is 7.74 to 9.80. Still for that read-out and setting: then `O=C(Nc1ccc2[nH]nc(-c3c[nH]cn3)c2c1)[C@@H]1CCN(CC(=O)N2CCN(c3ccc(-c4ncccn4)cc3)CC2)C1` (stereo in doubt) [Example 61, 1-{2-Oxo-2-[4-(4-pyrimidin-2-yl-phenyl)-piperazin-1-yl]-ethyl}-pyrrolidine-3-carboxylic acid [3-(1H-imidazol-4-yl)-1H-indazol-5-yl]-amide], with 7.74 to 9.80; and `CC(=O)N/N=C(\C)C1(C(=O)Nc2ccc3[nH]nc(-c4ccc(F)cc4)c3c2)CCN(CC(=O)N2CCN(c3ccc(-c4ncccn4)cn3)C[C@H]2C)C1` (stereo in doubt) [Example 358, 3-[1-(Acetyl-hydrazono)-ethyl]-1-{2-[2-methyl-4-(5-pyrimidin-2-yl-pyridin-2-yl)-piperazin-1-yl]-2-oxo-ethyl}-pyrrolidine-3-carboxylic acid [3-(4-fluoro-phenyl)-1H-indazol-5-yl]-amide], with 7.74 to 9.80; and `Cc1cnc(-c2ccc(N3CCN(C(=O)CN4CCC(NC=O)(C(=O)Nc5ccc6[nH]nc(-c7ccc(F)cc7)c6c5)C4)[C@H](C)C3)cc2)nc1` (stereo in doubt) [Example 362, 3-Formylamino-1-(2-{2-methyl-4-[4-(5-methyl-pyrimidin-2-yl)-phenyl]-piperazin-1-yl}-2-oxo-ethyl)-pyrrolidine-3-carboxylic acid [3-(4-fluoro-phenyl)-1H-indazol-5-yl]-amide], with 7.74 to 9.80. On the same count and under the same terms, under `CCNc1nnc(-c2ccc(C3CCN(C(=O)CN4CC[C@@](OC)(C(=O)Nc5ccc6[nH]nc(-c7ccc(F)cc7)c6c5)C4)CC3)cc2)o1` (stereo in doubt) [Example 623, 1-(2-{4-[4-(5-Ethylamino-[1,3,4]oxadiazol-2-yl)-phenyl]-piperidin-1-yl}-2-oxo-ethyl)-3-methoxy-pyrrolidine-3-carboxylic acid [3-(4-fluoro-phenyl)-1H-indazol-5-yl]-amide] stands 7.74 to 9.80. Same read-out and setting: under `N#Cc1cccc(-c2n[nH]c3ccc(NC(=O)[C@@H]4CCN(CC(=O)N5CCN(c6ccc(-c7ncccn7)cc6)CC5)C4)cc23)c1` [Example 2, 1-{2-Oxo-2-[4-(4-pyrimidin-2-yl-phenyl)-piperazin-1-yl]-ethyl}-pyrrolidine-3-carboxylic acid[3-(3-cyano-phenyl)-1H-indazol-5-yl]-amide] stands 7.74 to 9.80; under `CCCCNC(=O)c1n[nH]c2ccc(NC(=O)[C@@H]3CCN(CC(=O)N4CCN(c5ccc(-c6ncccn6)cc5)CC4)C3)cc12` [Example 86], 7.74 to 9.80; under `O=C(Nc1ccc2[nH]nc(-c3ccc(F)cc3)c2c1)C1CCN(CC(=O)N2CCN(c3ccc(-c4ncccn4)cn3)CC2)C1` (stereo not drawn) [Example 98], 7.74 to 9.80. For `C[C@@H]1CN(c2ccc(-c3ncccn3)cn2)CCN1C(=O)CN1CCC(C(=O)Nc2ccc3[nH]nc(-c4ccc(F)cc4)c3c2)C1` (stereo partly drawn) [Example 100], the pIC50 was 7.74 to 9.80 and 8.82 to 9.80. Take `Cc1cnc(-c2ccc(N3CCN(C(=O)CN4CCC(C(=O)Nc5ccc6[nH]nc(-c7ccc(F)cc7)c6c5)C4)[C@H](C)C3)cc2)nc1` (stereo partly drawn) [Example 120]: the pIC50 was 7.74 to 9.80. The same measure, in the same setting: then `COCC1(C(=O)Nc2ccc3[nH]nc(-c4ccc(F)cc4)c3c2)CCN(CC(=O)N2CCN(c3ccc(-c4ncccn4)cc3)CC2)C1` (stereo not drawn) [Example 125, 3-methoxymethyl-1-{2-oxo-2-[4-(4-pyrimidin-2-yl-phenyl)-piperazin-1-yl]-ethyl}-pyrrolidine-3-carboxylic acid [3-(4-fluoro-phenyl)-1H-indazol-5-yl]-amide], with 7.74 to 9.80.
